Results on seven molecules are retold here after PubChem BioAssay AID1259407 (Chemical Carcinogenesis Research Information System (CCRIS), 2018).

The structures appear in SMILES notation. The source made the active and inactive calls. How the calls were made is not given here.

The test system of the series is CCRIS mutagenicity, Ames/micronucleus/aberration tests. The series can be described thus: CCRIS mutagenicity studies.
The mark [1] stands for this setting: Test System: AMES SALMONELLA TYPHIMURIUM, Strain/Indicator: TA98, Metabolic Activation: NONE, Method: PREINCUBATION
The mark [2] stands for this setting: Test System: AMES SALMONELLA TYPHIMURIUM, Strain/Indicator: TA100, Metabolic Activation: NONE, Method: PREINCUBATION
[3] abbreviates: Test System: AMES SALMONELLA TYPHIMURIUM, Strain/Indicator: TA1535, Metabolic Activation: NONE, Method: PREINCUBATION
Where [4] appears, read: Test System: AMES SALMONELLA TYPHIMURIUM, Strain/Indicator: TA1537, Metabolic Activation: NONE, Method: PREINCUBATION
Setting [5] is: Test System: AMES SALMONELLA TYPHIMURIUM, Strain/Indicator: TA98, Metabolic Activation: NONE, Method: STANDARD PLATE.
Where [6] appears, read: Test System: AMES SALMONELLA TYPHIMURIUM, Strain/Indicator: TA98, Metabolic Activation: RAT, LIVER, S-9, AROCLOR 1254, Method: STANDARD PLATE.
The mark [7] stands for this setting: Test System: AMES SALMONELLA TYPHIMURIUM, Strain/Indicator: TA100, Metabolic Activation: NONE, Method: STANDARD PLATE.
The mark [8] stands for this setting: Test System: AMES SALMONELLA TYPHIMURIUM, Strain/Indicator: TA100, Metabolic Activation: RAT, LIVER, S-9, AROCLOR 1254, Method: STANDARD PLATE.
Where [9] appears, read: Test System: AMES SALMONELLA TYPHIMURIUM, Strain/Indicator: TA1535, Metabolic Activation: NONE, Method: STANDARD PLATE.
[10] abbreviates: Test System: AMES SALMONELLA TYPHIMURIUM, Strain/Indicator: TA1535, Metabolic Activation: RAT, LIVER, S-9, AROCLOR 1254, Method: STANDARD PLATE.
Where [11] appears, read: Test System: AMES SALMONELLA TYPHIMURIUM, Strain/Indicator: TA1537, Metabolic Activation: NONE, Method: STANDARD PLATE.
Where [12] appears, read: Test System: AMES SALMONELLA TYPHIMURIUM, Strain/Indicator: TA1537, Metabolic Activation: RAT, LIVER, S-9, AROCLOR 1254, Method: STANDARD PLATE.

For the molecule `CC(C)=CCC/C(C)=C/C=C/C(C)=C/C=C/C(C)=C/C=C/C=C(C)/C=C/C=C(C)/C=C/C=C(\C)CCC=C(C)C`, the mutagenic call is “inactive; negative” under setting [1]; “inactive; negative” (Test System: AMES SALMONELLA TYPHIMURIUM, Strain/Indicator: TA98, Metabolic Activation: RAT LIVER S-9, Method: PREINCUBATION); “inactive; negative” under setting [2]; “inactive; negative” (Test System: AMES SALMONELLA TYPHIMURIUM, Strain/Indicator: TA100, Metabolic Activation: RAT LIVER S-9, Method: PREINCUBATION); “inactive; negative” under setting [3]; “inactive; negative” (Test System: AMES SALMONELLA TYPHIMURIUM, Strain/Indicator: TA1535, Metabolic Activation: RAT LIVER S-9, Method: PREINCUBATION). In addition, the mutagenic call under setting [4] is “inactive; negative”; the mutagenic call (Test System: AMES SALMONELLA TYPHIMURIUM, Strain/Indicator: TA1537, Metabolic Activation: RAT LIVER S-9, Method: PREINCUBATION) was “inactive; negative”; the mutagenic call (Test System: ESCHERICHIA COLI, Strain/Indicator: WP2 UVR A, Metabolic Activation: NONE, Method: PREINCUBATION) is “inactive; negative”; the mutagenic call (Test System: ESCHERICHIA COLI, Strain/Indicator: WP2 UVR A, Metabolic Activation: RAT LIVER S-9, Method: PREINCUBATION) is “inactive; negative”.

Consider `COc1ccc([C@H]2O[C@H]2C(=O)c2ccccc2)cc1`, for which the mutagenic call runs as follows: under setting [5], “inactive; negative”; under setting [6], “inactive; negative”; under setting [7], “active; positive”; under setting [8], “active; positive”.

Take `COCC(=O)O`: the mutagenic call runs as follows: (Test System: AMES SALMONELLA TYPHIMURIUM, Strain/Indicator: TA97A, Metabolic Activation: NONE, Method: STANDARD PLATE) “inactive; negative”; (Test System: AMES SALMONELLA TYPHIMURIUM, Strain/Indicator: TA97A, Metabolic Activation: RAT, LIVER, S-9, AROCLOR 1254, Method: STANDARD PLATE) “inactive; negative”; under setting [5], “inactive; negative”; under setting [6], “inactive; negative”; under setting [7], “inactive; negative”; under setting [8], “inactive; negative”. Also, the mutagenic call was “inactive; negative” (Test System: AMES SALMONELLA TYPHIMURIUM, Strain/Indicator: TA102, Metabolic Activation: NONE, Method: STANDARD PLATE); “inactive; negative” (Test System: AMES SALMONELLA TYPHIMURIUM, Strain/Indicator: TA102, Metabolic Activation: RAT, LIVER, S-9, AROCLOR 1254, Method: STANDARD PLATE); “inactive; negative” (Test System: CHINESE HAMSTER OVARY, Strain/Indicator: CHO AS52 (GPT)/6-THIOGUANINE, Metabolic Activation: NONE); “inactive; negative” (Test System: CHINESE HAMSTER OVARY, Strain/Indicator: CHO-K1-BH4 (HGPRT)/6-THIOGUANINE, Metabolic Activation: NONE); “inactive; negative” (Test System: CHINESE HAMSTER OVARY, Strain/Indicator: CHO-K1-BH4 (HGPRT)/6-THIOGUANINE, Metabolic Activation: RAT, LIVER, S-9, AROCLOR 1254).

Consider `CSC(C)(C)C(=O)N[C@@H](CS)C(=O)O`, for which the mutagenic call is, setting by setting: under setting [1], “inactive; negative”; under setting [2], “inactive; negative”; under setting [3], “inactive; negative”; under setting [4], “inactive; negative”; (Test System: AMES SALMONELLA TYPHIMURIUM, Strain/Indicator: TA1538, Metabolic Activation: NONE, Method: PREINCUBATION) “inactive; negative”; (Test System: E. COLI, Strain/Indicator: WP2, Metabolic Activation: NONE, Method: PREINCUBATION) “inactive; negative”. Moreover, the mutagenic call (Test System: E. COLI, Strain/Indicator: WP2 UVRA, Metabolic Activation: NONE, Method: PREINCUBATION) is “inactive; negative”.

On to `CC(=O)C(Cl)(Cl)Cl`, for which the mutagenic call runs as follows: under setting [5], “active; positive”; under setting [6], “active; positive”; (Test System: AMES SALMONELLA TYPHIMURIUM, Strain/Indicator: TA100, Metabolic Activation: NONE, Method: FLUCTUATION TEST) “active; positive”; under setting [7], “active; positive”; (Test System: AMES SALMONELLA TYPHIMURIUM, Strain/Indicator: TA100, Metabolic Activation: RAT, LIVER, S-9, AROCLOR 1254, Method: FLUCTUATION TEST) “inactive; negative”; under setting [8], “active; positive”. Besides, the mutagenic call under setting [9] is “active; positive”, the mutagenic call under setting [10] was “active; positive”, the mutagenic call under setting [11] was “inactive; negative” and the mutagenic call under setting [12] was “inactive; negative”.

Turning to `O=C(O)C1OC1C(=O)O` (stereo unspecified), the mutagenic call was “inactive; negative” under setting [7]; “inactive; negative” under setting [8]; “inactive; negative” under setting [9]; “inactive; negative” under setting [10]; “inactive; negative” (Test System: UDS RAT HEPATOCYTES, Strain/Indicator: THY INCORP, Metabolic Activation: NONE).

As for `COc1cc(CNC(=O)CCCCCCC(C)C)ccc1O`, the mutagenic call (Test System: AMES SALMONELLA TYPHIMURIUM, Strain/Indicator: TA98, Metabolic Activation: HAMSTER, LIVER, S-9, AROCLOR 1254, Method: STANDARD PLATE) was “inactive; negative”; the mutagenic call under setting [6] is “inactive; negative”; the mutagenic call (Test System: AMES SALMONELLA TYPHIMURIUM, Strain/Indicator: TA100, Metabolic Activation: HAMSTER, LIVER, S-9, AROCLOR 1254, Method: STANDARD PLATE) is “inactive; negative”; the mutagenic call under setting [7] is “inactive; negative”; the mutagenic call under setting [8] is “inactive; negative”; the mutagenic call (Test System: AMES SALMONELLA TYPHIMURIUM, Strain/Indicator: TA1535, Metabolic Activation: HAMSTER, LIVER, S-9, AROCLOR 1254, Method: STANDARD PLATE) is “inactive; negative”. Moreover, the mutagenic call is “inactive; negative” under setting [9]; “inactive; negative” under setting [10]; “inactive; negative” (Test System: AMES SALMONELLA TYPHIMURIUM, Strain/Indicator: TA1537, Metabolic Activation: HAMSTER, LIVER, S-9, AROCLOR 1254, Method: STANDARD PLATE); “inactive; negative” under setting [11]; “inactive; negative” under setting [12]; “inactive; negative” (Test System: AMES SALMONELLA TYPHIMURIUM, Strain/Indicator: TA1538, Metabolic Activation: HAMSTER, LIVER, S-9, AROCLOR 1254, Method: STANDARD PLATE). Further, the mutagenic call reads like this: (Test System: AMES SALMONELLA TYPHIMURIUM, Strain/Indicator: TA1538, Metabolic Activation: NONE, Method: STANDARD PLATE) “inactive; negative”; (Test System: AMES SALMONELLA TYPHIMURIUM, Strain/Indicator: TA1538, Metabolic Activation: RAT, LIVER, S-9, AROCLOR 1254, Method: STANDARD PLATE) “inactive; negative”.
